Source: US12157772B2, “Prophylactic agent, onset-suppressing agent or therapeutic agent for progressive immune demyelinating diseases” (NATIONAL CENTER OF NEUROLOGY AND PSYCHIATRY, priority 2016, dated 2024)

Assays:
[1] = system: CD19+ B cells or CD19-CD45hi non-B/class II+ antigen-presenting cells; settings: CD19+ B cells and CD19-CD45hi non-B class II+ cells; cultured 24, 48 or 96 h with dopamine; FIG. 22
Protocol: CD19^+ B cells or CD19^−CD45^hi non-B/class II^+ antigen-presenting cells were purified from each mouse with the late-stage EAE pathology by sorting by FACS. The respective purified cells were cultured for 24, 48, or 96 h in the absence of dopamine or in the presence of a specific amount of dopamine. Next, the cultured cells were recovered and the prolactin gene (Prl) and Zbtb20 gene expression levels were analyzed by using a quantitative real-time PCR assay.

[2] = system: Spleen-derived CD19+ B cells; assay: Zbtb20 expression in spleen-derived CD19+ B cells cultured with LPS and various cytokines; format: cell-based, mouse; settings: cultured for 24 h in the presence of LPS and cytokine; FIG. 33
Protocol: Spleen-derived CD19^+ B cells were isolated and purified by sorting by FACS using a FACS ARIA II (manufactured by BD Cytometry Systems, Inc.). The purified B cells were cultured for 24 h in the presence of LPS and in the co-presence or absence of each cytokine designated in FIG. 33(a). After the culturing, the expression levels of Zbtb20 gene in the respective cells were measured. As antibodies used at the detection were an anti-CD19 antibody (manufactured by Biolegend, Inc.) and an anti-Zbtb20 antibody (manufactured by Becton Dickinson, Inc.).

prolactin gene (Prl) = assay: Prolactin gene (Prl) expression in CNS-derived antigen-presenting cells after L-dopa dosing (quantitative real-time PCR); format: in vivo, mouse; settings: CNS-derived B cells and non-B/class II+ antigen-presenting cells; repeated dosing; FIG. 25
Protocol: Next, CD19^+ B cells and CD19^−CD45^hi non-B/class II^+ antigen-presenting cells were separated from the CNS or the spleen of each L-dopa-administered mouse or each intact mouse; and the expression levels of prolactin gene (Prl) in these types of cells were analyzed by using a quantitative real-time PCR assay. As antibodies used at the detection were an anti-CD19 antibody (manufactured by Biolegend, Inc.) and an anti-CD45 antibody (manufactured by Biolegend, Inc.).

[3] = system: CD4+ T cells, CD19+ B cells, CD19-CD45hi non-B/class II+ antigen-presenting cells infiltrated into the CNS; assay: Eomes and Zbtb20 expression in CNS-infiltrated cells after L-dopa dosing (FACS); format: in vivo, mouse; settings: CNS at day 32 after the induction
Description: (§1) Into each CD4-Cre/NR4A2^fl/fl mouse in which monophasic EAE had been induced in a similar manner to the above 1.(3), L-dopa or a placebo (DMSO and PBS) was intraperitoneally injected every other day from day 4 after the induction.
Next, the brain and the spinal cord were collected from each mouse at day 32 after the induction; and CD4^+ T cells, CD19^+ B cells, or CD19^−CD45^hi non-B/class II^+ antigen-presenting cells infiltrated into the CNS were sorted by FACS using a FACS ARIA II (manufactured by BD Cytometry Systems, Inc.). The respective sorted cells were stained and analyzed regarding the Eomes and Zbtb20 gene expressions. As antibodies used at the detection were an anti-CD4 antibody (manufactured by Biolegend, Inc.), an anti-Eomes antibody (manufactured by eBioscience, Inc.), an anti-CD19 antibody (manufactured by Biolegend, Inc.), and an anti-Zbtb20 antibody (manufactured by Becton Dickinson, Inc.).

[4] = system: NR4A2-deficient mouse in which monophasic EAE had been induced; assay: EAE clinical score in NR4A2-deficient mice with induced monophasic EAE; format: in vivo
Description: as §1

[5] = system: Spleen-derived CD226+CD4+ T cells; assay: Culturing of spleen-derived CD226+CD4+ T cells in co-presence of prolactin, Eomes expression (flow cytometer / quantitative real-time PCR); format: cell-based, mouse
Protocol: Spleen-derived CD226^+CD4^+ T cells collected from each intact wild-type B6 mouse were cultured for 4 h or 8 h in the absence of prolactin or in the presence of each specific amount of prolactin. The Eomes expression levels in the respective cells after the culturing were measured by using a flow cytometer or a quantitative real-time PCR assay. As antibodies used at the detection were an anti-CD4 antibody (manufactured by Biolegend, Inc.) and an anti-Eomes antibody (manufactured by eBioscience, Inc.).

[6] = system: Spleen-derived CD226+ Th cells; assay: Prolactin addition and Eomes protein expression in spleen-derived CD226+ Th cells (FACS); format: cell-based, mouse; settings: cultured for 48 h in the presence of prolactin; FIG. 16
Protocol: Spleen-derived CD226^+ Th cells were cultured for 8 h or 48 h in the absence or presence of prolactin. After the culturing, the CD226^+ Th cells were stained with an anti-CD226 antibody and an anti-Eomes antibody, and a FACS CANTO II (manufactured by BD Cytometry Systems, Inc.) was used to analyze CD226^+Eomes^+ T cells, CD226^+ Eomes^− T cells, and CD226^− T cells. As the antibodies used during the analysis were an anti-CD226 antibody (manufactured by Biolegend, Inc.) and an anti-Eomes antibody (manufactured by Biolegend, Inc.).

Spleen-derived Th cells = assay: Prolactin addition and Eomes gene expression in spleen-derived Th cells (quantitative real-time PCR); format: cell-based, mouse; settings: cultured 8 h; recombinant prolactin at low and high concentration; FIG. 15
Protocol: Spleen-derived Th cells of each intact mouse were cultured for 8 h in the absence or presence of recombinant prolactin. After the culturing, total RNA was extracted from the Th cells. A first strand cDNA synthesis kit (manufactured by Takara Bio Inc.) was used to synthesize cDNA from the total RNA obtained. A Light Cycler instrument was used under conditions using a Light Cycler-Fast Start DNA Master SYBR Green I kit (manufactured by Roche Diagnostics, Inc.) or an ABI 7300 real-time PCR instrument was used under conditions using a Power SYBR Green Master mix (manufactured by Applied Biosystems, Inc.) to perform a quantitative real-time PCR assay by using commercially available primers (QuantiTect Primer Assay, QT01074332; manufactured by Qiagen, Inc.). The Eomes gene expression levels were corrected based on the expression level of a housekeeping gene GAPDH.

**Q.** With `NCCc1ccc(O)c(O)c1` [dopamine] as the molecule, how does the “Zbtb20 gene expression levels” value [1] read?
**A.** Its value is “decreased markedly”.

**Q.** And the “prolactin gene expression levels” value [1]?
**A.** The value was “decreased markedly”.

**Q.** With IFNα as the molecule, how does the “increase in the expression of Zbtb20 gene” value [2] read?
**A.** The value was “the most remarkable”.

**Q.** How did the “expression levels of prolactin gene” value (prolactin gene (Prl)) turn out when `N[C@@H](Cc1ccc(O)c(O)c1)C(=O)O` [L-dopa, L-3,4-dihydroxyphenylalanine] was run?
**A.** The value was “decrease”.

**Q.** What about the “percentage of CD4+Eomes+ T cells in the CD4+ T cells” value ([3]; FIG. 24(a)) of the same molecule?
**A.** The value was “decrease markedly”.

**Q.** And the “percentage of Zbtb20+ cells in the CD19+ B cells” value ([3]; FIG. 24(b))?
**A.** Its value is “decrease”.

**Q.** And the “percentage of Zbtb20+ cells in the CD19-CD45hi non-B/class II+ antigen-presenting cells” value ([3]; FIG. 24(c))?
**A.** The value was “decrease”.

**Q.** What about the “cumulative EAE scores” value ([4]; intraperitoneally every other day from day 4, right graph of FIG. 23) of the same molecule?
**A.** Its value is “improvement”.

**Q.** What about the EAE scores ([4]; intraperitoneally every other day from day 4 after the induction, FIG. 23) of the same molecule?
**A.** The EAE scores was “improve markedly”.

B1: prolactin: recombinant prolactin added to Th cell cultures (protein, UniProt P01236 29-227, looked up)
Prolactin: LPICPGGAARCQVTLRDLFDRAVVLSHYIHNLSSEMFSEFDKRYTHGRGFITKAINSCHTSSLATPEDKEQAQQMNQKDFLSLIVSILRSWNEPLYHLVTEVRGMQEAPEAILSKAVEIEEQTKRLLEGMELIVSQVHPETKENEIYPVWSGLPSLQMADEESRLSAYYNLLHCLRRDSHKIDNYLKLLKCRIIHNNNC
**Q.** Which “Eomes gene expression level” value ([5]; prolactin at 30 ng/mL, FIG. 8(b)) does the source give for B1 here?
**A.** The value was “increased”.

**Q.** And the “percentage of CD4+Eomes+ T cells” value ([5]; prolactin at 30 or 100 ng/mL, cultured 4 h or 8 h, FIG. 7, 8(a))?
**A.** The value was “increased markedly”.

**Q.** And the Eomes expression levels [6]?
**A.** The Eomes expression levels was “increased more markedly”.

**Q.** What about the “relative expression level of Eomes relative to that of a housekeeping gene” value (Spleen-derived Th cells) of the same molecule?
**A.** The value was “increased in a prolactin concentration-dependent fashion”.
